Measurements from patent US11479536B1 (King Abdulaziz University, priority 2022, dated 2022).

Experiments:
[1] = Stability in human liver microsomes; format: in vitro ADME
Experimental: Both mouse and human liver microsomes were obtained from Merck KGaA, (Darmstadt, Germany), Cat. No. M9441 (Mouse liver microsomes) and M0317 (Human liver microsomes). Assays were conducted in triplicate in 96-deep well polypropylene plates. The compounds were incubated with pooled liver microsomes from male CD-1 mice (Life Technologies, Grand Island, N.Y.), tetra-sodium NADPH and magnesium chloride for 60 min at 37° C. with gentle shaking. At five time points, reaction mixture aliquots were transferred to 96-shallow well stop plates on ice containing acetonitrile with 0.1 μM propafenone. […] Standard curves for test compound were generated using 5 concentrations in triplicate that were processed as above but with zero incubation time. Stop plates were centrifuged at 2000 g for 10 min and then supernatant aliquots were transferred to a Waters Aquity® UPLC 700 μL 96-well sample plate with cap mat (Waters, Milford, Mass.). The amount of compound remaining in the supernatant was quantified by LC/MS/MS using a Waters Xevo TQ MS (electrospray positive mode) coupled to a Waters Aquity® UPLC (BEH column, C18). Propafenone was used as the internal standard. GraphPad® Prism v 5.04 was used for nonlinear fitting of time course data to generate t1/2 values.

MCF7 spheroids [2] = assay: Cytotoxicity assay (MTT) in spheroid culture, MCF7; format: cell-based, human; settings: for IC50: Homo sapiens, MCF7, 3D spheroid model, 48 h, MTT; for reduction of spheroid size: MCF7 spheroids treated at IC50 for 48 h, vs control
Experimental: 1×10^4 cells of each cell line (MCF7 and T47D) were seeded into ultra-low attachment 96 well plate at 37° C. and grown for 48 hours in DMEM media to result in the formation of spheroids. Then, the cells were subjected to the different treatment conditions before performing the assays.
The cytotoxic effects of MAK compounds were assessed against MCF7 and T47D cell lines using MTT cell viability assay. The cells were treated for 48 hours with different concentrations of each MAK compound and the control cells were subjected to the vehicle (0.1% DMSO). Then, 10% of 5 mg/mL MTT was added to each well containing treated or control cells, and mixture was incubated at 37° C. for 3 hours. After that, the MTT-containing media was replaced with 100 μL DMSO and incubated for 10 minutes at room temperature before measuring the absorbance for each well at 570 nm. According to the measured absorbance, the IC50 was calculated for each compound. All the experiments were performed in biological and experimental replicates.

[3] = Binding to mouse plasma proteins (equilibrium dialysis); format: in vitro ADME; settings: CD-1, pH 7.4, 37° C., read-out: free, unbound fraction in mouse plasma
Experimental: The equilibrium dialysis method for determining plasma protein binding was performed as previously described using 96-well dialyzer plates with molecular weight cutoff of 5K (Harvard Apparatus, Holliston, Mass.) and a dual-plate rotator set to maximum speed (Harvard Apparatus, Holliston, Mass.) located in a 37° C. incubator with a 10% CO2-atmospheric environment. Assays were run in triplicate. The test compounds were added to CD-1 mouse plasma (Innovative Research, Novi, Mich., sodium heparin added as anticoagulant; pH adjusted to 7.4 with 2N HCl on day of use) in DMSO (final DMSO concentration 0.4%) to give 10 μM final concentration. Drug/plasma mixture and buffer (Dulbecco's phosphate-buffered saline 1× without calcium and magnesium, Mediatech, Inc., Herndon, Va.) were placed in their respective sides, wells were capped, and the plate was placed in the rotator and allowed to dialyze for 22 h. Following dialysis, aliquots of buffer and plasma mixture were removed and mixed with aliquots of the opposite matrix in 96-well deep plates. Concentrations of analytes from each side of the dialysis plate were determined by LC/MS/MS on a Waters Xevo TQ instrument as described above using positive electrospray ionization. […] The fraction unbound was calculated by dividing the drug concentration in the buffer side of the dialysis plate by the drug concentration in the plasma side.

MCF7 spheroids [4] = assay: Reactive oxygen species (CellROX) assay, MCF7 spheroids; format: cell-based, human; settings: 48 h treatment, CellROX Green
Experimental: The CELLROX (Invitrogen) assay was used to measure the level of reactive oxygen species (ROS) in live cells. […] The technique was used to investigate the capability of tested compounds to induce intracellular ROS. After forming the spheroids for 48 hours and treating them for additional 48 hours with MAK compound, spheroids were incubated in culture medium with 500 nM CellROX for 60 minutes at 37° C. in presence of 5% CO2, and the samples were immediately analyzed on flow cytometry using 488-nm excitation for the CellROX® Green.

CYP3A4 = biological target: T1, CYP3A4 (Homo sapiens, UniProt P08684); assay: Inhibition assay of human CYP450 enzymes, 3A4; format: in vitro ADME
T1 construct: purchased Fisher Scientific; host or cells: insect supersomes
Experimental: The two compounds MAK-1 and MAK-6 were assessed for its ability to inhibit the three major human CYP450 enzymes, 3A4, 2D6 and 2C9. Assays were run in triplicate. Expressed enzymes in insect supersomes (Fisher Scientific, Waltham, Mass.) were used to minimize non-specific binding and membrane partitioning issues (McMasters et al., 2007). The 3A4 assay uses testosterone as a substrate and analysis was performed by LC/MS/MS on a Waters Xevo TQ instrument as described above using positive electrospray ionization. Assay acceptance criteria was 20% for all standards and 25% for the LLOQ. The 2D6 and 2C9 assays use fluorescent substrates (3-[2-(N,N-diethylamino)ethyl]-7-methoxy-4-methylcoumarin for 2D6; 7-methoxy-4-(trifluoromethyl)coumarin for 2C9) and were analyzed on an Envision plate reader. GraphPad® Prism v 5.04 was used for nonlinear fitting of data to generate IC50 values.

T47D spheroids = assay: Mitochondrial membrane potential assay (JC-1), T47D spheroids; format: cell-based, human; settings: 48 h post treatment at IC50, control 15.67±2.05%
Experimental: The mitochondrial membrane potential was investigated in response to the treatment with MAK compounds. This assay depends on the measurement of the aggregate fluorescence for Tetraethylbenzimidazolylcarbocyanine iodide (JC-1). This cationic dye accumulates in the energized mitochondria, and the increase in aggregate fluorescence indicates mitochondrial […] while the reduction indicates the depolarization state.
After growing the cells and treating them with MAK compound for 48 hours, 2 μM of JC-1 final concentration was added and the mixture was incubated for 1 hour at 37° C. in presence of 5% CO2. Then, the samples were analyzed using flow cytometry. Mean values and standard deviation of replicates were calculated in comparison to the control group.

MCF7 spheroids [5] = assay: Live and dead assay of tumor spheroids, MCF7; format: cell-based, human; settings: 48 h post treatment, control 10.33±2.40%
Experimental: The Live/Dead assay contains a mixture of two staining fluorescent dyes that label live and dead cells to enable differentiation between them. The cell viability of the cells in response to the treatment with MAK compounds was examined. The cells were grown for 48 hours and treated with MAK compound for additional 48 hours, then Cytox RED solution reagent was added. After incubation at 37° C. under 5% CO2 for 1 hour, the samples were immediately analyzed by flow cytometry. Mean values and standard deviation of replicates were calculated in comparison to the control group.

T1 sequence (P08684 whole entry): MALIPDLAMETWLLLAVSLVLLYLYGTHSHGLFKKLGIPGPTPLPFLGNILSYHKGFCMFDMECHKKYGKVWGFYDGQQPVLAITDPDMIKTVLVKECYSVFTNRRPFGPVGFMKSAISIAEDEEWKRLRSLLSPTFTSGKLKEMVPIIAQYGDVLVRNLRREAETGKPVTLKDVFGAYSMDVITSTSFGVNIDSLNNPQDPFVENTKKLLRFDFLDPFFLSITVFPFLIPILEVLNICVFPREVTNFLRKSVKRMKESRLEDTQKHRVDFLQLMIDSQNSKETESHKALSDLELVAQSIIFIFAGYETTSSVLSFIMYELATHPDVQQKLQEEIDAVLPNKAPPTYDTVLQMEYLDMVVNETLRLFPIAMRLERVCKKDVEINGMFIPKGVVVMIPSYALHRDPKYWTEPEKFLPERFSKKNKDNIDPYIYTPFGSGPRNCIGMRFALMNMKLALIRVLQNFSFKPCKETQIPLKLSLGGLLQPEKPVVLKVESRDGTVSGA

| Structure (SMILES) | stability in human liver microsomes ([1]; in presence of NADPH, result in words) | stability in human liver microsomes ([1]; lacking (in absence of) NADPH) | IC50 (MCF7 spheroids [2]) | reduction of spheroid size (MCF7 spheroids [2]) | fraction unbound at 22 h, 10 μM [3] | ROS level, treatment vs control (MCF7 spheroids [4]) | inhibition of CYP3A4 (CYP3A4; concentration not given) | depolarized cells (mitochondrial membrane), mean±SEM (T47D spheroids) | dead rate (dead cells), mean±SEM (MCF7 spheroids [5]) | half-life ([1]; human, liver microsomes, in the presence of NADPH, 37° C., read-out: stability to oxidative metabolism in human liver microsomes (t1/2)) | inhibition of CYP3A4 (CYP3A4; concentrations up to 10 μM) |
| --- | --- | --- | --- | --- | --- | --- | --- | --- | --- | --- | --- |
| O=C(Cc1ccc(NC(=O)c2cccc(Cl)c2)cn1)NCc1ccccc1 [MAK-6, N-(6-(2-(benzylamino)-2-oxoethyl)pyridin-3-yl)-3-chlorobenzamide] | highly stable | highly stable | 22.9 ± 0.245 µM | noticeable reduction | 0.087 | 6% | did not display any inhibitory activity | 32.77±0.54% | 34.27±0.49% | – | – |
| COc1cccc(C(=O)Nc2ccc(CC(=O)NCc3ccccc3)cc2)c1 [MAK-1, N-(4-(2-(benzylamino)-2-oxoethyl)phenyl)-3-methoxybenzamide] | – | a trend that was not repeated | 23.81 ± 0.16 µM | noticeable reduction | 0.083 | 10% | – | 36.77±1.17% | 36.33±0.88% | 35 min | no inhibition |
